Data: patent US20100063085A1, “METHOD OF TREATING LEARNING IMPAIRMENT IN DOWN'S SYNDROME SUBJECTS” (University Court of The University of Dundee, priority 2008, published 2010)
Read-outs that look alike come from different tables or passages of the source.

What was measured:
Format in all cases: biochemical
MKK1 = MKK1 (Homo sapiens, UniProt Q02750); test: MKK1 33P kinase assay; settings: read-out: MKK1 activity as percentage of control without inhibitor
Procedure: (§1) All assays (25.5 μl) were carried out at room temperature (21° C.) and were linear with respect to time and enzyme concentrations under the conditions used. Assays were performed for 30 minutes except assays for LCK and PKB which were performed for 15 minutes using Multidrop Micro reagent dispensers (Thermo Electron Corporation, Waltham, Mass. 02454, USA) in a 96-well format. The concentration of […] [γ-^33P] ATP (800 cpm/pmol) in the assays was one of three concentrations (5, 20 or 50 μM) in order to be at or below Km for ATP for the enzyme. Assays were initiated with MgATP and stopped by addition of 5 μl of 0.5M orthophosphoric acid. Assays were then harvested onto P81 filterplates using a unifilter harvester (PerkinElmer, Boston, Mass. 02118, USA), with a wash buffer of 50 mM orthophosphoric acid. Filterplates were then air dried overnight. 10 μl of Microscint O was added per well prior to counting for radioactivity.
(§2) MKK1, JNK/SAPK1c, SAPK2a/p38, SAPK2b/p38β2, SAPK3/p38γ, SAPK4/p38δ, MAPK2/ERK2, MAPKAP-K1β, MAPKAP-K2, MSK1, PRAK, PKA, PKCα, PDK1, SGK, p70S6K, GSK3β, ROCK-II, PRK2, AMPK, CHK1, CHK2, CK2, PHK, LCK, were assayed according to Davies et al., (Davies, S. P., Reddy, H., Caivano, M. and Cohen, P. Biochem. J. 351, 95-105, 2000.
(§3) CSK and CDK2/cyclinA, were assayed according to Bain et al. (Bain J, McLauchlan H, Elliott M, Cohen P. Biochem J. 371, 199-204, 2003., except that ATP concentrations were either 5, 20 or 50 micromolar so that they were at or below the Km for ATP. The ATP concentrations used were as follows, 5 μM for assays of MKK1, SAPK3, SAPK4, GSK3β, PRK2 CK2 20 μm for assays of JNK, SAPK2β, MAPKAP-K2, MSK1, PRAK, PKA, […], PDK1, SGK, p70S6K, ROCK-II, CHK1, CHK2, CSK, CDK2, and 50 μM for assays of SAPK2a, MAPK2/ERK2, AMPK, LCK, PHK and MAPKAP-K1β.

PKBΔph = PKBΔph 33P kinase assay
Procedure: as §1

SAPK2b/p38β2 = SAPK2b/p38β2 (Homo sapiens, UniProt Q15759); test: SAPK2b/p38β2 33P kinase assay; settings: read-out: SAPK2b/p38β2 activity as percentage of control without inhibitor; for remaining activity at 1 µM: inhibitor 1 μM
Chain of SAPK2b/p38β2 (Q15759 whole entry): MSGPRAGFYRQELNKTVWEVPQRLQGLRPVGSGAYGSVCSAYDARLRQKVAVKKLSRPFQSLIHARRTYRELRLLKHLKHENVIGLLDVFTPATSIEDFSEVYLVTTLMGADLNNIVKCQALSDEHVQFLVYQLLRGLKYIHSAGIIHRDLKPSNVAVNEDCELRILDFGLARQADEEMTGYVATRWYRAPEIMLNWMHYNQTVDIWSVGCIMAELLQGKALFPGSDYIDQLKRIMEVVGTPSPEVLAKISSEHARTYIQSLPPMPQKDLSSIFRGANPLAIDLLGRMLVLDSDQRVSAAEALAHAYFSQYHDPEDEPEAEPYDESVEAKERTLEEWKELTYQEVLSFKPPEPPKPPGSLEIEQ
Procedure: as §1, with “Assays” for “All assays (25.5 μl) were carried out at room temperature (21° C.) and were linear with respect to time and enzyme concentrations under the conditions used. Assays”
as §2, §3

SGK = target: T1, SGK (Homo sapiens, UniProt O00141); test: SGK 33P kinase assay; settings: read-out: SGK activity as percentage of control without inhibitor
T1 sequence (O00141 1-431): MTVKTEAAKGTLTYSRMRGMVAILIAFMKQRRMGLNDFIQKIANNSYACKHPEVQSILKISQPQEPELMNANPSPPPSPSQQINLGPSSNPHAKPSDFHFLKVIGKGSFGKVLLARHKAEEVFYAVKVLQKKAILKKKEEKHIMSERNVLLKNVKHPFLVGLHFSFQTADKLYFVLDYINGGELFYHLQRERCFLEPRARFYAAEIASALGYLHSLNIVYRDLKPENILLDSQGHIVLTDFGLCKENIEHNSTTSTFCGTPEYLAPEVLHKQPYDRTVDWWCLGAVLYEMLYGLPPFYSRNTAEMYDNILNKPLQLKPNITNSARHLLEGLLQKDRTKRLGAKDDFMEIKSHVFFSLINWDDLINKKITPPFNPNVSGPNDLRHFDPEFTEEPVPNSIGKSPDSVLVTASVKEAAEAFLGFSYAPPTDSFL
Procedure: as §1, §2, §3

CHK2 = CHK2 (Homo sapiens, UniProt O96017); test: CHK2 33P kinase assay; settings: read-out: CHK2 activity as percentage of control without inhibitor
Chain of CHK2 (O96017 whole entry, species assumed): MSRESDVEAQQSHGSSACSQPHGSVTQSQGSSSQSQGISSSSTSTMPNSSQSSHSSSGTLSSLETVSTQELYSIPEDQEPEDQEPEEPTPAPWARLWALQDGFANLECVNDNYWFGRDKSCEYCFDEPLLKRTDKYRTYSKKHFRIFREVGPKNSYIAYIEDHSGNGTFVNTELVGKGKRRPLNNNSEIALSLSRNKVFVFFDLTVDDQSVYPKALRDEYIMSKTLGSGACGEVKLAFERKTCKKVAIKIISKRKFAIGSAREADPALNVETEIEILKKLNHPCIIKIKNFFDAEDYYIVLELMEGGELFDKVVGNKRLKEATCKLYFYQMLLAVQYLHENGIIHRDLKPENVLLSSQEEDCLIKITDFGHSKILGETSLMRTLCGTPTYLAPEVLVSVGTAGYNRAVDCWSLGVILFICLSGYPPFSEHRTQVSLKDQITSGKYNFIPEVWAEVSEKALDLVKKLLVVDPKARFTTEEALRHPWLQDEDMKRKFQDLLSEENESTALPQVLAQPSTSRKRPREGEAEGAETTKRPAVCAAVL
Procedure: as §1, §2, §3

Chain of MKK1 (Q02750 whole entry, species assumed): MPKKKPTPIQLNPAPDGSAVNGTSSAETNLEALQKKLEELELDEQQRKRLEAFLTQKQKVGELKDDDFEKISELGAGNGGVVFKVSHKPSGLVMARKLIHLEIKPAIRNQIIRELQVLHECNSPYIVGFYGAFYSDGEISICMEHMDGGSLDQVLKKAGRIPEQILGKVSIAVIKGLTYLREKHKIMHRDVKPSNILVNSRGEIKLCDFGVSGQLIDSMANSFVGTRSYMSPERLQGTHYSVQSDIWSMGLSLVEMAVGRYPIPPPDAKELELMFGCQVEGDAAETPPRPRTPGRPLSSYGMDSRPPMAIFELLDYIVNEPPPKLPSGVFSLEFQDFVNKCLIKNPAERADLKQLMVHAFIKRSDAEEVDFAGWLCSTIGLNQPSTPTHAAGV

SMILES	remaining activity at 1 µM (MKK1; inhibitor 1 μM) [%]	remaining activity at 10 µM (MKK1; inhibitor 10 μM) [%]	PKBΔph activity as percentage of control without inhibitor (PKBΔph; inhibitor 1 μM) [%]	PKBΔph activity as percentage of control without inhibitor (PKBΔph; inhibitor 10 μM) [%]	remaining activity at 1 µM (SAPK2b/p38β2) [%]	remaining activity at 10 µM (SAPK2b/p38β2; inhibitor 10 μM) [%]	remaining activity at 1 µM (SGK; inhibitor 1 μM) [%]	remaining activity at 10 µM (SGK; inhibitor 10 μM) [%]	remaining activity at 1 µM (CHK2; inhibitor 1 μM) [%]	remaining activity at 10 µM (CHK2; inhibitor 10 μM) [%]	remaining activity at 1 µM (MKK1) [%]	remaining activity at 10 µM (MKK1) [%]	remaining activity at 10 µM (SAPK2b/p38β2) [%]	remaining activity at 1 µM (SGK) [%]	remaining activity at 10 µM (SGK) [%]	remaining activity at 1 µM (CHK2) [%]	remaining activity at 10 µM (CHK2) [%]
COc1ccc2c3c([nH]c2c1)C(C)=NCC3 [Harmaline]	47	39	80	98	91	93	14	84	89	89	–	–	–	–	–	–	–
CC1=NCCc2c1[nH]c1cc(O)ccc21 [Harmalol]	92	66	92	58	88	79	62	45	76	57	–	–	–	–	–	–	–
COc1ccc2c(c1)[nH]c1c(C)nccc12 [Harmine]	–	–	107	107	–	–	–	–	–	–	76	73	87	66	62	78	79
